Results from PubChem BioAssay (NCI).
“And” between values parts separate entries of the source, which are not always exact repeats. Identical values can stand only once.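 A five-concentration, 48-hour dose response in 96-well plates underlies each endpoint, interpolated linearly between surrounding concentrations. At the GI50, growth is halved. Definition used: TGI = concentration required for complete inhibition of growth.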

What was measured:
Experiment in all cases: inhibition of tumour cell growth, NCI panel, 48 h
786-0 renal = tested on: 786-0 renal
CAKI-1 renal = tested on: CAKI-1 renal
COLO 205 colon = tested on: COLO 205 colon
LOX IMVI melanoma = tested on: LOX IMVI melanoma
MOLT-4 leukemia = tested on: MOLT-4 leukemia
SF-268 CNS = tested on: SF-268 CNS
SN12C renal = tested on: SN12C renal
SR leukemia = tested on: SR leukemia
SW-620 colon = tested on: SW-620 colon
U251 CNS = tested on: U251 CNS

SMILES	TGI (786-0 renal)	TGI (CAKI-1 renal)	TGI (COLO 205 colon)	TGI (LOX IMVI melanoma)	TGI (MOLT-4 leukemia)	TGI (SF-268 CNS)	TGI (SN12C renal)	TGI (SR leukemia)	TGI (SW-620 colon)	TGI (U251 CNS)	GI50 (786-0 renal)	GI50 (CAKI-1 renal)	GI50 (COLO 205 colon)	GI50 (LOX IMVI melanoma)	GI50 (MOLT-4 leukemia)	GI50 (SF-268 CNS)	GI50 (SN12C renal)	GI50 (SR leukemia)	GI50 (SW-620 colon)	GI50 (U251 CNS)
O=C(O)CCCCn1cnc2c(=S)nc[nH]c21	> 100 µM	> 100 µM	> 100 µM	> 100 µM	> 100 µM	> 100 µM	> 100 µM	> 100 µM	> 100 µM	> 100 µM										
COc1cc2cc[n+]3c4cc(OC)c(OC)cc4c(C)cc3c2cc1OC	> 100 µM	> 100 µM	> 100 µM	> 100 µM	> 100 µM		> 100 µM	> 100 µM	> 100 µM	> 100 µM										
N#Cc1c(-c2ccccc2)cc(-c2ccccc2)n(CCCCC(=O)NO)c1=O	9.13 µM	3.9 µM	7.76 µM	3.22 µM	8.83 µM	7.9 µM	11.5 µM	8.37 µM	11.9 µM	11.1 µM	2.83 µM	1.61 µM	2.74 µM	1.71 µM	1.84 µM	2.71 µM	2.95 µM	1.32 µM	2.95 µM	2.79 µM
COc1ccc(-c2cc(/C=C3\C(=O)Nc4ccc(OC)cc43)[nH]n2)cc1	> 100 µM	> 100 µM	> 100 µM	> 100 µM	> 100 µM	> 100 µM	> 100 µM	> 100 µM	> 100 µM	> 100 µM	> 100 µM	> 100 µM	4.53 µM	14 µM	> 100 µM	27.4 µM	> 100 µM	0.595 µM	0.912 µM	31.5 µM
CC(=O)OC[C@]12CC[C@@H]([C@@H](C)C(N)=O)[C@@H]1[C@H]1CC[C@@H]3[C@@]4(C)CC[C@H](OC(C)=O)C(C)(C)[C@@H]4CC[C@@]3(C)[C@]1(C)CC2	26.3 µM	15.4 µM	25 µM	24.4 µM	15.2 µM	22.3 µM	18.8 µM	23.5 µM	24.2 µM	20.4 µM	10.9 µM	3.24 µM	4.31 µM	10.2 µM	3.29 µM	6.95 µM	5.65 µM	3.32 µM	7.69 µM	5.1 µM
COc1ccc(Cc2cnc(NC(=O)c3sc4ccccc4c3Cl)s2)cc1	> 100 µM	> 100 µM	13.3 µM	> 100 µM	> 100 µM	> 100 µM	> 100 µM	> 100 µM	> 100 µM	> 100 µM	0.652 µM	0.487 µM	0.39 µM	1.52 µM	0.484 µM	1.26 µM	0.687 µM	0.31 µM	0.409 µM	0.382 µM
COc1c(CNC(=O)CCl)cc2[nH]c(C)cc2c1CNC(=O)CCl	15.4 µM	37 µM	27.8 µM	31.8 µM	83.8 µM	21.7 µM	39.9 µM	> 100 µM	20.7 µM	4.7 µM	3.8 µM	6.73 µM	10.6 µM	3.17 µM	5.19 µM	3.44 µM	4.92 µM	4.36 µM	5.61 µM	1.94 µM
CCC[CH2][Sn]([CH2]CCC)([O]C(=O)c1nccnc1N)[O]C(=O)c1nccnc1N	1.91 µM	1.77 µM	2.1 µM	1.48 µM	1.1 µM	1.97 µM	2.04 µM	2.35 µM	1.26 µM	1.65 µM	0.652 µM	0.226 µM	0.899 µM	0.365 µM	0.257 µM	0.64 µM	0.791 µM	0.294 µM	0.319 µM	0.478 µM
O=C(Nc1ccccc1Br)c1cccc([N+](=O)[O-])c1O	> 41 µM	> 43.8 µM	> 33.4 µM	10.7 µM	10.4 µM	> 100 µM	> 81.8 µM	33 µM	> 100 µM	14.9 µM										
Cc1cc(C)cc(Sc2c([N+](=O)[O-])ncn2C)c1	76.8 µM	89.2 µM	31.8 µM	25.6 µM	38.2 µM	33.9 µM	31.8 µM	41 µM	41.4 µM	36.7 µM										
COc1cc([C@@H]2c3cc4c(cc3[C@H](O)[C@H]3COC(=O)[C@H]23)OCO4)cc(OC)c1OC	1.08 µM and 0.5 µM and < 0.215 µM		< 0.005 µM	> 100 µM and 50 µM		> 63.4 µM and 50 µM and > 39.2 µM	> 100 µM and 35 µM	< 0.005 µM	> 100 µM and 50 µM	> 100 µM and 50 µM and > 7.6 µM	< 0.005 µM	< 0.005 µM	< 0.01 µM	< 0.01 µM	< 0.01 µM	< 0.01 µM	< 0.005 µM	< 0.01 µM	< 0.01 µM	< 0.005 µM
CC(=O)OCC1OC(OC2=C(CC=C(Cl)Cl)C(=O)c3ccccc3C2=O)C(OC(C)=O)C(OC(C)=O)C1OC(C)=O (centres undefined)	31.8 µM	17.6 µM	36.3 µM	3.56 µM	9.89 µM	8.03 µM	18.7 µM	> 100 µM	3.88 µM	13.3 µM	16.6 µM	4.91 µM	13.6 µM	1.71 µM	1.43 µM	2.75 µM	5.62 µM	3.11 µM	1.74 µM	3.54 µM
COc1cccc(C2C3=C(COC3=O)N(CCO)c3cc4c(cc32)OCCO4)c1 (centres undefined)	> 50 µM	> 34.8 µM	0.268 µM	> 50 µM		> 50 µM	> 50 µM		> 50 µM	> 50 µM	0.198 µM	0.145 µM	0.108 µM	0.288 µM	0.195 µM	0.355 µM		0.0271 µM	0.104 µM	0.221 µM
Cc1ccccc1N=Nc1c(O)[nH]c2ccccc12	> 100 µM	> 100 µM	> 100 µM	> 100 µM	> 100 µM	> 100 µM	> 100 µM	> 100 µM	> 100 µM	> 100 µM										
